Literature values, collected in paper PMC7523345 (Investigational new drugs, 2018).

Key:
[1] = tested on: TNBC cells with NOTCH1 re-arrangements; conditions: in vitro and in vivo; cited from earlier work
[2] = tested on: TNBC cells with NOTCH2 rearrangement; conditions: cited from earlier work

In the case of O=S1(=O)N[C@@]2(CN1CC(F)(F)F)[C@@H]1CC[C@H]2Cc2ccc(/C=C/CN3CCC(C(F)(F)F)CC3)cc2C1 [MRK-003], the “Sensitivity of TNBC cells with NOTCH1 re-arrangements” value [1] is listed as “sensitive” and the “Sensitivity of TNBC cells with NOTCH2 rearrangement” value [2] is listed as “resistant”.
